Test results: patent US12674178B2, “Methods for the evaluation of neutralizing antibodies for adeno-associated virus” (REGENTS OF THE UNIVERSITY OF MINNESOTA, priority 2020, dated 2026)

Tests used:
AAV8 = test: AAV8-Luc infection of HEK293 cells, luciferase readout; assay type: cell-based, adeno-associated virus; conditions: at least one model system, cells pretreated
Protocol: (§1) HEK293 cells were infected with AAV8-Luciferase (Luc) or AAV2-Luc at an MOI of 5000 in the presence of several pharmacologically active drugs (TNFα+LPS, TNFα+IL-6, dorsomorphin (also known as “Compound C” or “CC”), SP600125, or rosiglitazone). The drugs were added 1 hour before injection with AAV-Luc. 24 hours after AAV-Luc was added, luciferase was detected, as further described in Example 2.
Method: Day 0: • 1. Remove culture medium (DMEM supplemented with 10% heat-inactivated FBS and 1% penicillin/streptomycin) from HEK293 cell culture, gently wash cells twice with 100 μL of PBS. Cells should be at low passage and approximately 80% confluent without being overgrown. Harvest cells by trypsinization and perform a cell count. • 2. Resuspend cells in complete DMEM culture medium at 200,000 cells/mL. Seed cells in 96-well plates with black or white walls and clear bottoms: 20,000 cells/well in 100 μL of complete media. • 3. Incubate cells overnight in C02 incubator at 37° C. Day 1: • 1. […] Each dilution was analyzed at least in triplicate. […] Set up spectrophotometer to read chemiluminescence. If the spectrophotometer is BioTek the read conditions are: 500 ms, gain 125-135, height of plate 3.75 mm. Add 50 μL of Bright Glo substrate to each well, incubate plate 3 min in the dark and then read. For maximal light intensity, samples should be measured within 15 minutes of reagent addition. […]

AAV2 = test: AAV2-Luc infection of HEK293 cells, luciferase readout; assay type: cell-based, adeno-associated virus; conditions: AAV2, CC pre-treatment, 48 hours, MOI 2000
Protocol: as §1
Method: Day 0: • 1. Remove culture medium (DMEM supplemented with 10% heat-inactivated FBS and 1% penicillin/streptomycin) from HEK293 cell culture, gently wash cells twice with 100 μL of PBS. Cells should be at low passage and approximately 80% confluent without being overgrown. Harvest cells by trypsinization and perform a cell count. • 2. […] Each dilution was analyzed at least in triplicate. […] Set up spectrophotometer to read chemiluminescence. If the spectrophotometer is BioTek the read conditions are: 500 ms, gain 125-135, height of plate 3.75 mm. Add 50 μL of Bright Glo substrate to each well, incubate plate 3 min in the dark and then read. For maximal light intensity, samples should be measured within 15 minutes of reagent addition.
(§2) The dramatic improvement of AAV8 transduction in vitro in the presence of CC prompted test to determine if similar effect could be achieved for other AAV serotypes. The transduction efficiency of ten common AAV serotypes at MOI 2000 vg/cell was analyzed. […]

AAV10 = test: AAV10/Luc infection of HEK293 cells, luciferase readout; assay type: cell-based, adeno-associated virus; conditions: AAV10, CC pre-treatment, MOI 2000
Protocol: Method: Day 0: • 1. Remove culture medium (DMEM supplemented with 10% heat-inactivated FBS and 1% penicillin/streptomycin) from HEK293 cell culture, gently wash cells twice with 100 μL of PBS. Cells should be at low passage and approximately 80% confluent without being overgrown. Harvest cells by trypsinization and perform a cell count. • 2. Resuspend cells in complete DMEM culture medium at 200,000 cells/mL. Seed cells in 96-well plates with black or white walls and clear bottoms: 20,000 cells/well in 100 μL of complete media. • 3. Incubate cells overnight in C02 incubator at 37° C. Day 1: • 1. Confirm microscopically that cells are 50-80% confluent. • 2. […] Each dilution was analyzed at least in triplicate. […] Set up spectrophotometer to read chemiluminescence. If the spectrophotometer is BioTek the read conditions are: 500 ms, gain 125-135, height of plate 3.75 mm. Add 50 μL of Bright Glo substrate to each well, incubate plate 3 min in the dark and then read. For maximal light intensity, samples should be measured within 15 minutes of reagent addition.
as §2

HEK293 cells = test: Cytotoxicity of the drug to the cells to be infected; assay type: cell-based

c1cc(-c2cnn3cc(-c4ccc(OCCN5CCCCC5)cc4)cnc23)ccn1 [dorsomorphin]
CC pretreatment concentration giving statistically significant increase in activity of AAV/Luc (AAV8): at least 2.5 μM | luciferase activity, times higher than background (AAV2): more than 1000 times | luciferase activity, times higher than background (AAV10): 8 times | cytotoxic effects (HEK293 cells; HEK293 infected with AAV2/AAV8): without cytotoxic effects | CC concentration that became toxic to cells (HEK293 cells; at least one model system): higher than 20 μM
